This note sets out measurements from ChEMBL document CHEMBL1144055, “Mathemycin B, a new antifungal macrolactone from actinomycete species HIL Y-8620959” (1999).

Assay type in all cases: functional
The subject of assay [1] is Phytophthora infestans. Kind of assay: Antimicrobial activity against Phytophthora infestans JO8 assessed as drug concentration required to form 10 mm zone of inhibition by agar diffusion method. On the technique in general: Agar diffusion results depend on both activity and mobility in agar.
Assay [2] deals with Parastagonospora nodorum. Kind of assay: Antimicrobial activity against Leptosphaeria nodorum JO2 assessed as drug concentration required to form 10 mm zone of inhibition by agar diffusion method.
Assay [3] is described as follows: Antimicrobial activity against Pellicularia sasakii JO3 assessed as drug concentration required to form 10 mm zone of inhibition by agar diffusion method.
Assay [4] concerns Botrytis cinerea. Description: Antimicrobial activity against Botrytis cinerea A06 assessed as drug concentration required to form 10 mm zone of inhibition by agar diffusion method.
The subject of assay [5] is Oculimacula yallundae. Kind of assay: Antimicrobial activity against Pseudocercosporella herpotrichoides 008 assessed as drug concentration required to form 10 mm zone of inhibition by agar diffusion method.
The subject of assay [6] is Fusarium culmorum. Kind of assay: Antimicrobial activity against Fusarium culmorum assessed as drug concentration required to form 10 mm zone of inhibition by agar diffusion method.
In assay [7] the test system is Botrytis cinerea. Description: Antimicrobial activity against Botrytis cinerea DO1 assessed as drug concentration required to form 10 mm zone of inhibition by agar diffusion method.
Assay [8] relates to Alternaria mali. Description: Antimicrobial activity against Alternaria mali P37 assessed as drug concentration required to form 10 mm zone of inhibition by agar diffusion method.

Regarding MANCOZEB, the MAC in assay [1] stood at 62.5 mg/L.

As to `C/C1=C\C(C)C(O)/C(C)=C/C(O[C@H]2O[C@H](CO)[C@@H](O)[C@H](O[C@@H]3O[C@H](CO)[C@@H](O)[C@H](O)[C@@H]3O)[C@@H]2O)C(O)C(C)C(O)CC(O)CC(O)C(C)C(O)CC(O)CC(O)C(C)C(O)CC(O)CC(O[C@@H]2O[C@H](C)[C@@H](O)[C@H](N)[C@H]2O)C(C)C(C(C)CC(C)CCCCCCN)OC(=O)CCC(C)C(O)CC/C=C/C(C)C1O` (some centres undefined) [MATHEMYCIN B], the MAC in assay [2] turned out to be 125 mg/L; in assay [3] it was 62.5 mg/L; in assay [4], 62.5 mg/L; in assay [5], 250 mg/L; in assay [6] it was 62.5 mg/L; in assay [7], 62.5 mg/L. The MAC in assay [8] turned out to be 62.5 mg/L.

For the compound maneb, the MAC in assay [5] amounted to 125 mg/L.
